This note sets out measurements from patent publication US9994617B2, “Modulation of structured polypeptide specificity” (BICYCLE THERAPEUTICS LIMITED, priority 2011, dated 2018).

Numbered stars: 1 amine (or outer) side, 2 acyl side, 3 side chain; on linkers, the order of the positions; unused ones are H or OH. Bridge positions count the residues as written; N and C are the ends. Square brackets hold non-standard residues; d marks the D form. Peptide text beside a SMILES is read from it. TBMB = c1c(C[*:1])cc(C[*:3])cc1C[*:2]; NMeC = CN[C@@H](CS)C(=O)O; NMeA = CN[C@@H](C)C(=O)O

One experiment deals with human plasma kallikrein (hPK) (Homo sapiens, UniProt P03952). Description: Enzyme inhibition assay, human plasma kallikrein.
Details: not given
As usually defined, the Ki is the dissociation constant of the complex between target and ligand, obtained from inhibition or displacement. A high value points to weaker binding. For the compound `CC[C@H](C)[C@@H]1NC(=O)[C@H](C(C)C)NC(=O)[C@H](CCCNC(=N)N)NC(=O)[C@@H]2CSCc3cc(cc(c3)CSC[C@@H](C(=O)N[C@@H](C)C(N)=O)NC1=O)CSC[C@H](NC(=O)[C@H](C)N)C(=O)N[C@@H](Cc1ccccc1)C(=O)N[C@@H](CC(=O)O)C(=O)N1CCC[C@H]1C(=O)N2` [Peptide 3B9] (H-ACFDPCRVICA-NH2; linker 2-6-10 via TBMB), the affinity corresponds to a Ki of 90.8 nM. Take `CC(C)[C@@H]1NC(=O)[C@H](CCCNC(=N)N)NC(=O)[C@@H]2CSCc3cc(cc(c3)CSC[C@@H](C(=O)N[C@@H](C)C(N)=O)NC(=O)[C@H](CC(N)=O)NC1=O)CSC[C@H](NC(=O)[C@H](C)N)C(=O)N[C@@H](Cc1ccccc1)C(=O)N[C@@H](CCCCN)C(=O)N[C@@H](CC(N)=O)C(=O)N2` [Peptide 3B2] (H-ACFKNCRVNCA-NH2; linker 2-6-10 via TBMB): affinity was put at a Ki of 9 nM. `CC(C)[C@@H]1NC(=O)[C@H](CCCNC(=N)N)NC(=O)[C@@H]2CSCc3cc(cc(c3)CSC[C@@H](C(=O)N[C@@H](C)C(N)=O)NC(=O)[C@H](C)NC1=O)CSC[C@H](NC(=O)[C@H](C)N)C(=O)N[C@@H](Cc1ccccc1)C(=O)N1CCC[C@H]1C(=O)N[C@@H](CCCCN)C(=O)N2` [Peptide 3A3] (H-ACFPKCRVACA-NH2; linker 2-6-10 via TBMB) displayed a Ki of 43.1 nM. Still for that read-out and setting: in the case of `CC(=O)N[C@H]1CSCc2cc3cc(c2)CSC[C@H](NC(=O)[C@H](Cc2ccc(NC(=N)N)cc2)NC(=O)[C@H](C)NC(=O)[C@@H]2CCCN2C(=O)[C@H](Cc2c[nH]c4ccccc24)NC(=O)[C@H](CO)NC1=O)C(=O)N[C@@H](CC(C)C)C(=O)N[C@@H](Cc1c[nH]cn1)C(=O)N[C@@H](CCC(N)=O)C(=O)N[C@@H](CC(=O)O)C(=O)N[C@@H](CC(C)C)C(=O)N[C@H](C(N)=O)CSC3` [Ac-(06-34-18) 4GuanPhe5] it was 0.3 nM; in that of `CC(=O)N[C@H]1CSCc2cc3cc(c2)CSC[C@@H](C(=O)N[C@@H](CC(C)C)C(=O)N[C@@H](Cc2c[nH]cn2)C(=O)N[C@@H](CCC(N)=O)C(=O)N[C@@H](CC(=O)O)C(=O)N[C@@H](CC(C)C)C(=O)N[C@H](C(N)=O)CSC3)N(C)C(=O)[C@H](CCCNC(=N)N)NC(=O)[C@H](C)NC(=O)[C@@H]2CCCN2C(=O)[C@H](Cc2c[nH]c3ccccc23)NC(=O)[C@H](CO)NC1=O` [Ac-(06-34-18) NMeCys2] (Ac-CSWPAR[NMeC]LHQDLC-NH2; linker 1-7-13 via TBMB), 418 nM; in that of `CC(=O)N[C@H]1CSCc2cc3cc(c2)CSC[C@H](NC(=O)[C@H](CCCNC(=N)N)NC(=O)[C@H](C)N(C)C(=O)[C@@H]2CCCN2C(=O)[C@H](Cc2c[nH]c4ccccc24)NC(=O)[C@H](CO)NC1=O)C(=O)N[C@@H](CC(C)C)C(=O)N[C@@H](Cc1c[nH]cn1)C(=O)N[C@@H](CCC(N)=O)C(=O)N[C@@H](CC(=O)O)C(=O)N[C@@H](CC(C)C)C(=O)N[C@H](C(N)=O)CSC3` [Ac-(06-34-18) NMeAla4] (Ac-CSWP[NMeA]RCLHQDLC-NH2; linker 1-7-13 via TBMB), 343 nM. On to `CC(=O)N[C@H]1CSCc2cc3cc(c2)CSC[C@H](NC(=O)[C@H](CCNC(=N)N)NC(=O)[C@H](C)NC(=O)[C@@H]2CCCN2C(=O)[C@H](Cc2c[nH]c4ccccc24)NC(=O)[C@H](CO)NC1=O)C(=O)N[C@@H](CC(C)C)C(=O)N[C@@H](Cc1c[nH]cn1)C(=O)N[C@@H](CCC(N)=O)C(=O)N[C@@H](CC(=O)O)C(=O)N[C@@H](CC(C)C)C(=O)N[C@H](C(N)=O)CSC3` [Ac-(06-34-18) Agb5], for which the affinity corresponds to a Ki of 83 nM.

Compound `CC(=O)N[C@H]1CSCc2cc3cc(c2)CSC[C@H](NC(=O)[C@H](CNC(=N)N)NC(=O)[C@H](C)NC(=O)[C@@H]2CCCN2C(=O)[C@H](Cc2c[nH]c4ccccc24)NC(=O)[C@H](CO)NC1=O)C(=O)N[C@@H](CC(C)C)C(=O)N[C@@H](Cc1c[nH]cn1)C(=O)N[C@@H](CCC(N)=O)C(=O)N[C@@H](CC(=O)O)C(=O)N[C@@H](CC(C)C)C(=O)N[C@H](C(N)=O)CSC3` [Ac-(06-34-18) Agp5] displayed a Ki of 1770 nM.

Still in this experiment, the particulars now being: versus Ac-06-34-18(TMB)-NH2.
`CC(=O)N[C@H]1CSCc2cc3cc(c2)CSC[C@H](NC(=O)[C@H](Cc2ccc(NC(=N)N)cc2)NC(=O)[C@H](C)NC(=O)[C@@H]2CCCN2C(=O)[C@H](Cc2c[nH]c4ccccc24)NC(=O)[C@H](CO)NC1=O)C(=O)N[C@@H](CC(C)C)C(=O)N[C@@H](Cc1c[nH]cn1)C(=O)N[C@@H](CCC(N)=O)C(=O)N[C@@H](CC(=O)O)C(=O)N[C@@H](CC(C)C)C(=O)N[C@H](C(N)=O)CSC3` [Ac-(06-34-18) 4GuanPhe5]: the “fold reduction in affinity to kallikrein compared to wildtype peptide” value came out at 2 fold.
